Test results reported in paper PMC5403251 (Neuropharmacology, 2016).

Columns and labels:
5-HT2C receptors = details: ref Kennett et al., 1997; cited from earlier work
C57BL/6J mice [1] = assay: Discrete-trials temporal discrimination task; type: in vivo, mouse
5-HT2C = details: in mice; ref Canal et al., 2013; cited from earlier work
5-HT6 = 5-HT6 (Homo sapiens, UniProt P50406); assay: NIMH PDSP binding screen
α2C = target: T1, α2C (Homo sapiens, UniProt P18825); assay: NIMH PDSP binding screen
T1 sequence (P18825 1-462): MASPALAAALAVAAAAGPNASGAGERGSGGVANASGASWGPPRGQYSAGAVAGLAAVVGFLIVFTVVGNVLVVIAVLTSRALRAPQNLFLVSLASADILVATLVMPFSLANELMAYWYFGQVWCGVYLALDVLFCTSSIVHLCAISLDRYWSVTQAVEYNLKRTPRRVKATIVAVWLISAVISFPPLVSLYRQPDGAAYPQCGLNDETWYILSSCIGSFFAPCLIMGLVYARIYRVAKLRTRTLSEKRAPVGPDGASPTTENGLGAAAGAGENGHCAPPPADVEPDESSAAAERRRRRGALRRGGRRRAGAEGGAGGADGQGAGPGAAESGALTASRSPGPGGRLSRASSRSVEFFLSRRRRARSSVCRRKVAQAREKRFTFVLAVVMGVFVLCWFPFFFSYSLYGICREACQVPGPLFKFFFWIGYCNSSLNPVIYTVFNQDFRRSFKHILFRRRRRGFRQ

NIH Swiss mice = details: mediated by the 5-HT2A receptor, ref Fantegrossi et al., 2014; cited from earlier work
human 5-HT2C receptor = target: T2, human 5-HT2C receptor (Homo sapiens, UniProt P28335); assay: NIMH PDSP competitive radioligand binding, [3H]mesulergine
T2 sequence (P28335 33-458): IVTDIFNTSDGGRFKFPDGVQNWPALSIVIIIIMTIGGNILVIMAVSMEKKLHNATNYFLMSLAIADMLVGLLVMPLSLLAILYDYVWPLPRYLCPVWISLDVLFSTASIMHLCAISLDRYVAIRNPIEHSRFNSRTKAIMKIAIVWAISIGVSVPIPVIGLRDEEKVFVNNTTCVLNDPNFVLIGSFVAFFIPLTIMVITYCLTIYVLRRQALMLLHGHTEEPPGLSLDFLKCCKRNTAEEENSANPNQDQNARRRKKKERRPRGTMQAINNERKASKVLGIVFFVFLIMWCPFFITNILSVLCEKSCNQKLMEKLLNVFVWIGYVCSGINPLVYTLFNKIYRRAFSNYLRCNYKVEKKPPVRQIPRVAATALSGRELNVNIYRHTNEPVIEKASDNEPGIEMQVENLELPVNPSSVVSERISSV

α2A = target: T3, α2A (Homo sapiens, UniProt P08913); assay: NIMH PDSP binding screen
T3 sequence (P08913 1-465): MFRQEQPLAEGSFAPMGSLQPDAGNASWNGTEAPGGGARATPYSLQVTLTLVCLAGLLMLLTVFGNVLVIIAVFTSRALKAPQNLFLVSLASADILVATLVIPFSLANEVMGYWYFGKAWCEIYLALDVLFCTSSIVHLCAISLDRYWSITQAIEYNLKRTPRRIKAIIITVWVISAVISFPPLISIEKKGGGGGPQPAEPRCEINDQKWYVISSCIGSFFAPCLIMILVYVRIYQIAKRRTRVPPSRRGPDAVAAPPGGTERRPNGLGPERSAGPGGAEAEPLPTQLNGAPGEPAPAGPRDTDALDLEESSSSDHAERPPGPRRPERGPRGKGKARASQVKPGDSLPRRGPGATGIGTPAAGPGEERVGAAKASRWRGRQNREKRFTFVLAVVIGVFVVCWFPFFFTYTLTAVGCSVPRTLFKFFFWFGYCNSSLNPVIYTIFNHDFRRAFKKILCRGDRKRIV

α2B = target: T4, α2B (Homo sapiens, UniProt P18089); assay: NIMH PDSP binding screen
T4 sequence (P18089 1-450): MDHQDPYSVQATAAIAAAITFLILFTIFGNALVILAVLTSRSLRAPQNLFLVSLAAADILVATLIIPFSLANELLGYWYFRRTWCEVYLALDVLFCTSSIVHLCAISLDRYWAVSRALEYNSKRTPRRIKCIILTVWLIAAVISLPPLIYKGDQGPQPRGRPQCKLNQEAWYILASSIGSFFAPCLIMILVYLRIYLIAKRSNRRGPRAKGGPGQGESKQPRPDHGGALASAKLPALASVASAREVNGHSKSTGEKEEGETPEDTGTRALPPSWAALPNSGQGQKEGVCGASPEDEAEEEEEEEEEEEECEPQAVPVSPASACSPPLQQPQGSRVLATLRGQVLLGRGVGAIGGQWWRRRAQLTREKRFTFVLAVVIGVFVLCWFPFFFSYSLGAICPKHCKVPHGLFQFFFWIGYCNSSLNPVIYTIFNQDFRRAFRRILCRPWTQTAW

β2 = β2 (Homo sapiens, UniProt P07550); assay: NIMH PDSP binding screen
sigma-2 = target: T5, sigma-2 (Rattus norvegicus, UniProt Q5U3Y7); assay: NIMH PDSP binding screen
T5 sequence (Q5U3Y7 1-176): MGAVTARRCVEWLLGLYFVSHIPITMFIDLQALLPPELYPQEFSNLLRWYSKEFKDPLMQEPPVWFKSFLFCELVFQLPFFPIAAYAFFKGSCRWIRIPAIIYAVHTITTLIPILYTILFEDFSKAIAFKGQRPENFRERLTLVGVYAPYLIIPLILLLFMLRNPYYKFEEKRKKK

C57BL/6J mice [2] = assay: Head twitch response; type: in vivo, mouse
histaminergic H2 = histaminergic H2 (Homo sapiens, UniProt P25021); assay: NIMH PDSP binding screen
[3] = SB-242,084 0.1 mg/kg SC, 10 min before session
[4] = SB-242,084 0.3 mg/kg SC, 10 min before session
[5] = SB-242,084 1 mg/kg SC, 10 min before session
[6] = 25CN-NBOH 1 mg/kg SC, 5 min before session
[7] = 25CN-NBOH 6 mg/kg SC, 5 min before session

Chain of histaminergic H2 (P25021 whole entry): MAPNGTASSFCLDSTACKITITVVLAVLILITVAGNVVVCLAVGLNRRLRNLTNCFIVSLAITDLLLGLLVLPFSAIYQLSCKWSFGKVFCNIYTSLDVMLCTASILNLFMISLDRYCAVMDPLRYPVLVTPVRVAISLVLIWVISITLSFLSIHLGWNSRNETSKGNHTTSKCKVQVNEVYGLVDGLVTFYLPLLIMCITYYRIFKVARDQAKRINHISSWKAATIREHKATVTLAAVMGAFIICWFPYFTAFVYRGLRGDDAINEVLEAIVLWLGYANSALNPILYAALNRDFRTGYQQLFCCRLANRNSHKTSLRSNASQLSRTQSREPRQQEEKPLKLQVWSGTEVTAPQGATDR
Chain of 5-HT6 (P50406 whole entry, species assumed): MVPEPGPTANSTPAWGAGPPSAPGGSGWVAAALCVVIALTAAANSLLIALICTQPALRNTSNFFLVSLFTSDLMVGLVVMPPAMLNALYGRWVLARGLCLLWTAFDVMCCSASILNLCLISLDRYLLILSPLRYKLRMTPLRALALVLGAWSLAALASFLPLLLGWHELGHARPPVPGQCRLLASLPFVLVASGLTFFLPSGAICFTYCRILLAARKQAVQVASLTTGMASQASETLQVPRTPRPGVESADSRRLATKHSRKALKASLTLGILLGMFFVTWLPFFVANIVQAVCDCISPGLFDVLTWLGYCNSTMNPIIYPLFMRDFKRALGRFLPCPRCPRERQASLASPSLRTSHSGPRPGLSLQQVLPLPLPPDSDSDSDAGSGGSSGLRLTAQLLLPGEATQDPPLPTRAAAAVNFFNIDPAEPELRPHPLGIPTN
Chain of β2 (P07550 whole entry): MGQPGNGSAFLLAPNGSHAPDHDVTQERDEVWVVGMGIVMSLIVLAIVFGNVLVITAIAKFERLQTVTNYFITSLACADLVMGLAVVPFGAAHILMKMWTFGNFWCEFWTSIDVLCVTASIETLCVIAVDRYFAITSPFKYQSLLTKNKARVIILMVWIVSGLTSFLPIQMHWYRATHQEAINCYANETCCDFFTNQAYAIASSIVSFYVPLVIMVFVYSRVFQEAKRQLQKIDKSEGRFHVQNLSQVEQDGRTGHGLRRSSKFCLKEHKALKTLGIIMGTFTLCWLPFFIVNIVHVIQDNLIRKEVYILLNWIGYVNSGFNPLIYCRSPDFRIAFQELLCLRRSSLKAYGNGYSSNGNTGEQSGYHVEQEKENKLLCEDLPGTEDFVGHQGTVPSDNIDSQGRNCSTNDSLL

## 6-chloro-2,3-dihydro-5-methyl-N-[6-[(2-methyl-3-pyridinyl)oxy]-3-pyridinyl]-1H-indole-1-carboxyamide dihydrochloride [SB-242,084]
5-HT2C receptors
  Selectivity for 5-HT2C receptors compared with 5-HT2A and 5-HT2B receptors: over 100 fold
C57BL/6J mice [1]; SB-242,084 0.1 mg/kg SC pretreatment, DOI 3 mg/kg IP
  Effect of pretreatment on the response to DOI (%B responding): did not block the ability of DOI to alter %B responding
C57BL/6J mice [1]; [3]
  Difference limen: 0.98 ± 0.10 s
  Slope (ε): 1.202±0.110
  T50: 6.28 ± 0.14 s
  Trials completed: 191.4±1.6
C57BL/6J mice [1]; SB-242,084 0.1 mg/kg SC, 10 min before session, mean±SEM
  Weber fraction: 0.156±0.016
C57BL/6J mice [1]; [4]
  Difference limen: 1.05 ± 0.08 s
  Slope (ε): 1.094±0.084
  T50: 6.02 ± 0.14 s
  Trials completed: 189.9±2.5
  Weber fraction: 0.173±0.015
C57BL/6J mice [1]; [5]
  Difference limen: 1.07 ± 0.09 s
  Slope (ε): 1.105±0.108
  T50: 5.66 ± 0.17 s
  Trials completed: 188.0±2.8
  Weber fraction: 0.191±0.018
5-HT2C
  Selectivity for 5-HT2C over 5-HT2A: 960 fold

## COc1cc(CCNCc2ccccc2O)c(OC)cc1C#N.Cl [25CN-NBOH, N-(2-hydroxybenzyl)-2,5-dimethoxy-4-cyanophenethylamine hydrochloride]
5-HT6
  Ki: 573 nM
α2C
  Ki: 543 nM
NIH Swiss mice
  Head twitch response (HTR): induce the head twitch response
C57BL/6J mice [1]; [6]
  Difference limen: 1.09 ± 0.11 s
  Slope (ε): 1.098±0.125
  T50: 6.33 ± 0.20 s
  Trials completed: 182.4±3.7
C57BL/6J mice [1]; 25CN-NBOH 1 mg/kg SC, 5 min before session, mean±SEM
  Weber fraction: 0.175±0.020
C57BL/6J mice [1]; 25CN-NBOH 6 mg/kg SC
  %B responding (proportional choice of lever B): reduced %B responding at long stimulus intervals
C57BL/6J mice [1]; [7]
  Difference limen: 1.65 ± 0.12 s
  T50: 7.63 ± 0.24 s
  Trials completed: 134.5±8.4
  Weber fraction: 0.217±0.015
C57BL/6J mice [1]; 25CN-NBOH 0.3–3 mg/kg SC
  %B responding (proportional choice of lever B): did not significantly alter %B responding
C57BL/6J mice [1]; after drug treatment that reduced %B responding at long stimulus intervals
  Correct responding during the 10.5 s-trials: more than 80%
Human 5-HT2C receptor
  Ki: 49.8 ± 7.4 nM
α2A
  Ki: 803 nM
α2B
  Ki: 1230 nM
β2
  Ki: 1610 nM
sigma-2
  Ki: 575 nM
C57BL/6J mice [2]; Mus musculus, sc, 0.5 h, read-out: HTR ED50
  ED50: 0.36 mg/kg
C57BL/6J mice [2]; SC, 30-min session
  Dose producing the maximal HTR response: 3 mg/kg
Histaminergic H2
  Ki: 1510 nM
